Reference: patent publication US4316957A, “Process for the production of 7-deazaadenosine and 7-deazainosine” (Abbott Laboratories, priority 1977, dated 1982)
In brackets after ≈: the same amount, converted by molar mass. Read-outs that look alike come from different tables or passages of the source.

Tests used:
[1] = system: Bacillus subtilis KY 4273; test: Antibacterial spectrum by agar dilution method (pH 7.0); assay type: cell-based
Description: (§1) The antibacterial spectra of 7-deazaadenosine and 7-deazainosine against various microorganisms by agar dilution method (pH 7.0) are shown in the following Table 3.

[2] = system: Comamonas terrigena KY 4174; test: as above; assay type: cell-based
Description: as §1

[3] = system: Escherichia coli KY 4271; test: as above; assay type: cell-based
Description: as §1

[4] = system: Mycobacterium phlei KY 3486; test: as above; assay type: cell-based; details: Mycolicibacterium phlei
Description: as §1

[5] = system: Mycobacterium smegmatis KY 3848; test: as above; assay type: cell-based; details: Mycolicibacterium smegmatis
Description: as §1

[6] = system: Pseudomonas alcaligenes KY 4656; test: as above; assay type: cell-based; details: Aquipseudomonas alcaligenes
Description: as §1

[7] = Solubility; assay type: physicochemical

MIC ([1]; KY4273, Bacillus subtilis KY 4273, agar dilution, pH 7.0, read-out: MIC) [µg/mL] | MIC ([2]; KY4174, Comamonas terrigena KY 4174, agar dilution, pH 7.0, read-out: MIC) [µg/mL] | MIC ([3]; KY4271, Escherichia coli KY 4271, agar dilution, pH 7.0, read-out: MIC) [µg/mL] | MIC ([4]; KY3486, Mycobacterium phlei KY 3486, agar dilution, pH 7.0, read-out: MIC) [µg/mL] | MIC ([5]; KY3848, Mycobacterium smegmatis KY 3848, agar dilution, pH 7.0, read-out: MIC) [µg/mL] | MIC ([6]; KY4656, Pseudomonas alcaligenes KY 4656, agar dilution, pH 7.0, read-out: MIC) [µg/mL] | Compound | MIC ([1]; Bacillus subtilis, KY4273, pH 7) [µg/mL] | MIC ([2]; Comamonas terrigena, KY4174, pH 7) [µg/mL] | MIC ([3]; Escherichia coli, KY4271, pH 7) [µg/mL] | MIC ([4]; KY3486, pH 7) [µg/mL] | MIC ([5]; KY3848, pH 7) [µg/mL] | MIC ([6]; KY4656, pH 7) [µg/mL] | Solubility ([7]; in hexane, benzene and ether) | Solubility ([7]; in methanol) | Solubility ([7]; in water)
– | – | – | – | – | – | Nc1ncnc2c1ccn2[C@@H]1O[C@H](CO)[C@@H](O)[C@H]1O [7-Deazaadenosine, 7-deazaadenosine] | 100 (≈ 376 µM) | 10 (≈ 37.6 µM) | > 100 | < 0.045 | 20 (≈ 75.1 µM) | 10 (≈ 37.6 µM) | insoluble | poorly soluble | Soluble
> 100 | 40 (≈ 150 µM) | > 100 | < 0.045 | > 100 | 40 (≈ 150 µM) | O=c1[nH]cnc2c1ccn2[C@@H]1O[C@H](CO)[C@@H](O)[C@H]1O [7-Deazainosine, 7-deazainosine] | – | – | – | – | – | – | insoluble | poorly soluble | Soluble
